# Literature values, collected in paper PMC4536914 (Chembiochem : a European journal of chemical biology, 2012).
# Biological target: Plk1 PBD (HA-EGFP-Plk1 in mitotic 293A cell lysates) (Homo sapiens, UniProt P53350)
# Conditions: previous work; ref [10]
# Plk1 PBD (HA-EGFP-Plk1 in mitotic 293A cell lysates), sequence (P53350 whole entry): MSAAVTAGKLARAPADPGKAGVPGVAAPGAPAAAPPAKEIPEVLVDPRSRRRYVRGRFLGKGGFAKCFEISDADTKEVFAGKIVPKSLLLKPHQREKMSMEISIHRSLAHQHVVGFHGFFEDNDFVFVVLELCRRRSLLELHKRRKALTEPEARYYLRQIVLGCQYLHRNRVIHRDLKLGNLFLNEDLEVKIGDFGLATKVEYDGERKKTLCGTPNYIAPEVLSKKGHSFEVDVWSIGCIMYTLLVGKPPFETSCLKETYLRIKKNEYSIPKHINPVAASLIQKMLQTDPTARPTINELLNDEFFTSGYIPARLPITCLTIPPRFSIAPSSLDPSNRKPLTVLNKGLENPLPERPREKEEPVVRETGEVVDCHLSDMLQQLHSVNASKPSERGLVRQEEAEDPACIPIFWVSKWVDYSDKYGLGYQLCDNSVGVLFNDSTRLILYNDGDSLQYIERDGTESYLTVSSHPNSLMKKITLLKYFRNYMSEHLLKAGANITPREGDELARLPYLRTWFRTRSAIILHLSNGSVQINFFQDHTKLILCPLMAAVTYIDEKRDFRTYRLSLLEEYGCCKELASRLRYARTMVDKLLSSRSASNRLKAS
substance,measurement,value
LHSpT,Plk1 PBD-binding affinity relative to parent peptide 1,significantly less Plk1 PBD-binding affinity than the parent peptide 1
